Where two headings read alike, the source gives them in different places.

The assay concerns the target β-amyloid (βA4) peptide (Homo sapiens, UniProt P05067). Conditions: 37° C.; for percent decrease in aggregation of β-amyloid: 25 μM β-amyloid; for percent decrease in aggregation of β-amyloid / percentage of increase of aggregation: 48 hours. On the procedure:
β-amyloid (also known as (βA-4) peptide was dissolved in 100% dimethylsulfoxide (DMSO) at 10 mg/ml (or 2500 μM) concentration. The resultant solution was diluted to 1 mg/ml (or 250 μM) stock in Phosphate Buffered Saline (PBS), pH 7.4, just prior to setting up the assay and dispensed in individual sample wells of a Corning 96-well plate at 16 μl per well (i.e. a final concentration of 25 μM). All treatments were done in triplicate.
In this example, the candidate compound was added to the test wells at three different concentrations (250 μM, 500 μM and 1 mM). Total volume in each well was brought up to 160 μl with PBS. For untreated control wells, no compound was added to the β-amyloid peptide, and the total volume was made to 160 μl with PBS. The plates were sealed with parafilm and incubated at 37° C. for 48 hours.
At the end of the incubation period, the plates were taken out and 25 μl of Bio-Rad protein assay dye reagent (Bradford dye) was added to all the wells with samples. A standard curve was also set up at this time for estimation of fresh (also considered as unaggregared) peptide absorbance. The dye was mixed by pipeting and the plates quickly spun at 2500 rpm to remove bubbles.
The Absorbance was read at 595 nm in a Dynatech MR5000 plate reader 15 minutes after adding the dye.
The procedure of Example 1 was repeated except that hydrogen peroxide (10 μl of 30% stock) was added to the wells in a 96-well plate with 16 μl of the 1 mg/ml β-amyloid stock. The final volume was then brought up to 160 μl by adding 134 μl of PBS to these wells. The plate was sealed and incubated at 37° C. for 48 hours.
At the end of the incubation period, the plates were taken out and 25 μl of Bio-Rad protein assay dye reagent (Bradford dye) was added to all the wells with samples as in Example 1. A standard curve was again used for estimation of fresh (also considered as unaggregated) peptide absorbance. The dye was mixed by pipeting and the plates quickly spun at 2500 rpm to remove bubbles.
The absorbance was read at 595 nm in the Dynatech MR5000 plate reader 15 minutes after adding the dye. The amount of aggregation was estimated by subtracting background and taking the difference between the fresh and hydrogen peroxide treated β-amyloid readings. The difference was expressed as percent over fresh or unaggregated peptide.

Chain of β-amyloid (βA4) peptide (P05067 672-713 limits assumed): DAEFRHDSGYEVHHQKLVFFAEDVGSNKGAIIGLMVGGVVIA

With `CCCn1cnc2c1c(=O)n(CCCCC(C)=O)c(=O)n2C` [propentofylline, 1-(5'-oxohexyl)-3-methyl-7-propyl-2,6-(1H,3H)-purinedione], the “percent decrease in aggregation of β-amyloid” value runs as follows: (500 μM compound) 29.68%; (1 mM compound) 37.4%.

Turning to pentosan polysulfate, the “percentage of increase of aggregation” value was determined as 40.8% (0.5 μM compound), 57.1% (5 μM compound) and 62.9% (50 μM compound).

Take `OO` [hydrogen peroxide]: the “percentage of aggregation (difference between fresh and treated β-amyloid, percent over fresh peptide)” value (10 μl of 30% stock in 160 μl, after 48 hrs) is recorded as 97.7%.

The record behind these values is patent publication US5919631A, “Method of determining the degree of aggregation of the β-A4 peptide” (Hoechst Marion Roussel, Inc., priority 1996, dated 1999).
